Data set [1] in a line: Pharmacokinetic investigation, oral bioavailability in mice. The settings on record: plasma, Mouse, read-out: Bioavailability following oral administration. It counts as in vivo. As to the method: (§1) Pharmacokinetic data were determined after administering various substances i.v. or p.o. as solutions to mice, rats and dogs. For this, blood samples were collected up to 24 hours after administration. The concentrations of the unaltered substance were determined by bioanalytical methods (HPLC or HPLC-MS) in the plasma samples which were obtained from the blood samples. Pharmacokinetic parameters were subsequently ascertained from the plasma concentration time courses which had been obtained in this way. The following Table 2 gives the bioavailability in the different species.

In the next data set the target is T1, adenosine A2b receptor (Homo sapiens, UniProt P29275).
T1 construct: expressed in transfected cells; host or cells: CHO (Chinese Hamster Ovary)
T1 sequence (P29275 1-332): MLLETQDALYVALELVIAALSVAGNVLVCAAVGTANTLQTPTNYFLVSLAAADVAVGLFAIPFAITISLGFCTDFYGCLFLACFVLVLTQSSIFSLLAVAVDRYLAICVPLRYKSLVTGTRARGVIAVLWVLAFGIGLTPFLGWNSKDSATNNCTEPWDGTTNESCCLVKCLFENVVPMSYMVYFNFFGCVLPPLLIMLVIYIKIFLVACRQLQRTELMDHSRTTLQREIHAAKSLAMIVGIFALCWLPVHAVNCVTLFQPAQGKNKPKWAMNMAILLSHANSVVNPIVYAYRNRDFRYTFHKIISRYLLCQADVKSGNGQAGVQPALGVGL
Kind of data set: Adenosine agonism indirectly by gene expression (luciferase, cAMP-dependent promoter) in transfected CHO cells, A2b. It counts as cell-based. The settings on record: read-out: Stimulation of adenosine A2b receptor (% of the maximum stimulation achieved by NECA). The text has this: (§2) Cells of the CHO (Chinese Hamster Ovary) permanent cell line are transfected stably with the cDNA for the adenosine receptor subtypes A1, A2a and A2b. The adenosine A1 receptors are coupled to the adenylate cyclase by way of Gi proteins, while the adenosine A2a and A2b receptors are coupled by way of Gs proteins. In correspondence with this, the formation of cAMP in the cell is inhibited or stimulated, respectively. After that, expression of the luciferase is modulated by way of a cAMP-dependent promoter. The luciferase test is optimized, with the aim of high sensitivity and reproducibility, low variance and good suitability for implementation on a robot system, by varying several test parameters, such as cell density, duration of the growth phase and the test incubation, forskolin concentration and medium composition. The following test protocol is used for pharmacologically characterizing cells and for the robot-assisted substance test screening.
(§3) The stock cultures are grown, at 37° C. and under 5% CO2, in DMEM/F12 medium containing 10% FCS (foetal calf serum) and in each case split 1:10 after 2–3 days. The test cultures are seeded in 384-well plates at the rate of from 1 000 to 3 000 cells per well and grown at 37° C. for approx. 48 hours. The medium is then replaced with a physiological sodium chloride solution (130 mM sodium chloride, 5 mM potassium chloride, 2 mM calcium chloride, 20 mM HEPES, 1 mM magnesium chloride 6H2O, 5 mM NaHCO3, pH 7.4). The substances, which are dissolved in DMSO, are diluted 1:10 three times with this physiological sodium chloride solution and pipetted into the test cultures (maximum final concentration of DMSO in the test mixture: 0.5%). In this way, final substance concentrations of, for example, from 5 μM to 5 nM are obtained. 10 minutes later, forskolin is added to the A1 cells and all the cultures are subsequently incubated at 37° C. for four hours. After that, 35 μl of a solution which is composed of 50% lysis reagent (30 mM disodium hydrogenphosphate, 10% glycerol, 3% TritonX100, 25 mM TrisHCl, 2 mM dithiothreitol (DTT), pH 7.8) and 50% luciferase substrate solution (2.5 mM ATP, 0.5 mM luciferin, 0.1 mM coenzyme A, 10 mM tricine, 1.35 mM magnesium sulphate, 15 mM DTT, pH 7.8) are added to the test cultures, the plates are shaken for approx. 1 minute and the luciferase activity is measured using a camera system.
(§4) The table gives the % values of the corresponding reference stimulus. The measured values for the A2a and A2b receptors are values in per cent of the maximum stimulation achieved by NECA; the measured values for the A1 receptor are values in per cent following direct prestimulation of the adenylate cyclase with 1 μmolar forskolin (corresponds to the 100% value).

The nature of data set [2]: Pharmacokinetic investigation, oral bioavailability in rats. It counts as in vivo. The following applies: plasma, Rat, at 3 mg/kg p.o., read-out: Bioavailability following oral administration. The method, then: as §1
The next data set deals with T2, adenosine A1 receptor (Homo sapiens, UniProt P30542).
T2 construct: expressed in transfected cells; host or cells: CHO (Chinese Hamster Ovary)
T2 sequence (P30542 1-326): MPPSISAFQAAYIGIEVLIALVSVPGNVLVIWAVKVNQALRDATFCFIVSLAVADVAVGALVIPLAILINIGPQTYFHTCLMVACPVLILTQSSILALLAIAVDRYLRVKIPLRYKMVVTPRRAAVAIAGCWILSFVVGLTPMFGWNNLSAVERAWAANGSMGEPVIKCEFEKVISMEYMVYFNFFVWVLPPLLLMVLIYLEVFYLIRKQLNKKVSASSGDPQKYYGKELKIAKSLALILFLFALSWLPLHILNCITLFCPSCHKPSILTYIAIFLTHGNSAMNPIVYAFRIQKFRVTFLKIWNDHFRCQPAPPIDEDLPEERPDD
Kind of data set: Adenosine agonism indirectly by gene expression (luciferase, cAMP-dependent promoter) in transfected CHO cells, A1. It is filed as cell-based. The settings on record: 1 μmolar forskolin = 100%, agonists give less than 100%.
Source text: as §2, §3, §4

Another data set addresses T3, adenosine A2a receptor (Homo sapiens, UniProt P29274).
T3 construct: expressed in transfected cells; host or cells: CHO (Chinese Hamster Ovary)
Kind of data set: Adenosine agonism indirectly by gene expression (luciferase, cAMP-dependent promoter) in transfected CHO cells, A2a. It counts as cell-based. The settings on record: read-out: Stimulation of adenosine A2a receptor (% of the maximum stimulation achieved by NECA).
Source text: as §2, §3, §4

Data set [3] can be described thus: Pharmacokinetic investigation, oral bioavailability in dogs. It counts as in vivo. The following applies: plasma, Dog, read-out: Bioavailability following oral administration. The method, then:
as §1

In a further data set the test system is heart. Kind of data set: Cardiovascular effect: heart rate of isolated rat heart in Langerdorff apparatus. The settings on record: isolated perfused rat heart. As to the method: After the thorax has been opened, the heart is rapidly removed from anaesthetized rats and introduced into a conventional Langerdorff apparatus. The coronary arteries are perfused at constant volume (10 ml/min), and the resulting perfusion pressure is recorded by way of an appropriate pressure sensor. In this set-up, a decrease in the perfusion pressure corresponds to a relaxation of the coronary arteries. At the same time, the pressure which the heart develops during each contraction is measured by way of a balloon, which has been introduced into the left ventricle, and a second pressure sensor. The frequency of the heart, which is beating in isolation, is calculated from the number of contractions per time unit.
In this experimental set-up, the following values were obtained for the reduction in heart rate (the stated percentage refers to the reduction of the heart rate in per cent at the concentration in question): […]

Where [4] appears, read: at a concentration of 10^−6 g/ml.
[5] abbreviates: at a concentration of 10^−7 g/ml.

Read-outs that look alike come from different tables or passages of the source.

The values that follow come from US7109218B2, “Substituted 2-thio-3,5-dicyano-4-phenyl-6-aminopyridines and the use of the same” (Bayer HealthCare AG, priority 2001, dated 2006).

T3 sequence (P29274 whole entry): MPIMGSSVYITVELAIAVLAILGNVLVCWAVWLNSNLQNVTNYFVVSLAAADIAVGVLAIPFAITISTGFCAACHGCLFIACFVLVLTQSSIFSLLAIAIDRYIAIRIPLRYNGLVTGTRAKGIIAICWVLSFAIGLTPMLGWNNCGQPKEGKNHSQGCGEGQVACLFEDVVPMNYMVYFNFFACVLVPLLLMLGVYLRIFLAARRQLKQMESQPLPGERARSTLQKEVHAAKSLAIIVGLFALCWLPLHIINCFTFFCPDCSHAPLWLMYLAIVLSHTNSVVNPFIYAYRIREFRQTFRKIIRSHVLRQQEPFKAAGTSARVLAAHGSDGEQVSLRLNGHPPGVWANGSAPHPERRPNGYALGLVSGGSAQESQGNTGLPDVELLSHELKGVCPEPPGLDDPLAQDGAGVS

In the case of `COCCOc1ccc(-c2c(C#N)c(N)nc(SCc3cccnc3)c2C#N)cc1` [Example 1, 2-Amino-4-[4-(2-methoxyethoxy)phenyl]-6-[(3-pyridinylmethyl)sulphanyl]pyridine-3,5-dicarbonitrile], the bioavailability was 31.5% in data set [1] (at 1 mg/kg p.o.), 5% in data set [2] and 32.6% in data set [3] (at 3 mg/kg p.o.). Besides, the Emax is 2% on adenosine A2b receptor (0.3 nmol); 6% on adenosine A2b receptor (1 nmol); 8% at adenosine A2b receptor (10 nmol); -1% on adenosine A2a receptor (0.3 nmol); 2% at adenosine A2a receptor (1 nmol); -2% on adenosine A2a receptor (10 nmol). Also, the “Stimulation of adenosine A1 receptor (luciferase activity in % of forskolin prestimulation)” value on adenosine A1 receptor (0.3 nmol) is recorded as 56%; at adenosine A1 receptor (1 nmol) it was 11%; on adenosine A1 receptor (10 nmol), 4%. The “Reduction of the heart rate in percent” value with heart (setting [4]) turned out to be 17.5%; in the data set on heart (setting [5]), 15.0%.

With `N#Cc1c(N)nc(SCc2csc(-c3ccc(Cl)cc3)n2)c(C#N)c1-c1ccc(OCCO)cc1` [Example 6, 2-Amino-6-({[2-(4-chlorophenyl)-1,3-thiazol-4-yl]methyl}sulphanyl)-4-[4-(2-hydroxyethoxy)phenyl]pyridine-3,5-dicarbonitrile], the results for the bioavailability in data set [1] (at 3 mg/kg p.o.), in data set [2] and in data set [3] (at 1 mg/kg p.o.) were 41.3%, 42.3% and 28.5%, respectively. For the same molecule, the Emax turned out to be 0% at adenosine A2b receptor (0.3 nmol); 3% on adenosine A2b receptor (1 nmol); 29% on adenosine A2b receptor (10 nmol); 0% at adenosine A2a receptor (0.3 nmol); 4% on adenosine A2a receptor (1 nmol); 2% on adenosine A2a receptor (10 nmol). For the same molecule, the “Stimulation of adenosine A1 receptor (luciferase activity in % of forskolin prestimulation)” value is recorded as 45% on adenosine A1 receptor (0.3 nmol), 25% on adenosine A1 receptor (1 nmol) and 7% at adenosine A1 receptor (10 nmol). Besides, the “Reduction of the heart rate in percent” value with heart (setting [4]) is 20.0%; in the data set on heart (setting [5]), 15.5%.
